pIC50: −log10 of the molar value.
Experiments:
[1] = tested on: NF-kB transcriptional activity in HEK-293-NF-kB-Luc cell line overexpressing MALT1; assay: NF-kB reporter assay (luciferase, MALT1 stably overexpressed); format: cell-based; conditions: Homo sapiens, 24 h, HEK-293-NF-kB-Luc cells stably overexpressing MALT1, 24 h treatment, Bright Glo luminescence; read-out: NF-kB inhibition IC50
Procedure, shortened: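 Inhibition of NF-κB activity was expressed relative to 0.1% DMSO wells, from luminescence after 10 min Bright Glo at ambient temperature. Compounds had been applied for 24 h to adhered MALT1-overexpressing HEK-293 NF-κB luciferase reporter cells.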

[2] = tested on: OCI-Ly-10 cells; assay: Anticancer assay (14 days), cell viability by CCK-8; format: cell-based; conditions: Homo sapiens, OCI-Ly10, 336 h, 14 days treatment, fresh treatment every 5th day, CCK-8 viability, read-out: Ly-10 (14d) inhibition IC50
Experimental: OCI-Ly-10 cells (UHN, Canada) seeded in culture media (IMDM+20% FBS) in 96-well plates were treated with various concentrations of the test compounds. Cells were treated for a period of 14 days (13-15 days depending on the confluency of cells) with fresh treatments every 5th day. After the first treatment, for all subsequent treatments, the cells were centrifuged, the spent media was removed and fresh media containing the test compound was added. Cell viability was assessed using CCK-8 kit (Dojindo Laboratories, China) as per manufacturer's instructions. Plates were read in colorimeter and absorbance was detected. (Detection at 450 nm; Background correction at 650 nm). % inhibition was calculated relative to the samples containing media with 0.1% DMSO alone as per the following formula

Row | SMILES | pIC50 [2] | pIC50 [1]
1 | COCC(OC)c1c(NC(=O)Nc2cnc(OC)c(Cl)c2)cnc2sc(C)nc12 (stereo not shown) [Compound 34a, 1-(5-chloro-6-methoxypyridin-3-yl)-3-(7-(1,2-dimethoxyethyl)-2-methylthiazolo[5,4-b]pyridin-6-yl)urea] | 6.60 to 7.00 | 6.30 to 7.00
2 | COC(c1c(NC(=O)Nc2cnc(-n3nccn3)c(C(F)(F)F)c2)cnc2sc(C)nc12)C1CCC1 (stereo not shown) [Compound 224b, 1-(6-(2H-1,2,3-Triazol-2-yl)-5-(trifluoromethyl)pyridin-3-yl)-3-(7-(cyclobutyl(methoxy)methyl)-2-methylthiazolo[5,4-b]pyridin-6-yl)urea] | 7.60 to 10.00 | 7.00 to 9.00
3 | Cc1nc2c(N(C)CC3CC3)c(NC(=O)Nc3cnc(-n4nccn4)c(Cl)c3)cnc2s1 [Compound 42, 1-(5-Chloro-6-(2H-1,2,3-triazol-2-yl)pyridin-3-yl)-3-(7-((cyclopropylmethyl)(methyl)amino)-2-methylthiazolo[5,4-b]pyridin-6-yl)urea] | 7.00 to 7.59 | 7.00 to 9.00
4 | CCOC(C)c1c(NC(=O)Nc2cnc(-n3nccn3)c(Cl)c2)cnc2sc(C)nc12 (racemic) [Compound 164, 1-(5-Chloro-6-(2H-1,2,3-triazol-2-yl)pyridin-3-yl)-3-(7-(1-ethoxyethyl)-2-methylthiazolo[5,4-b]pyridin-6-yl)urea] | 6.60 to 7.00 | 7.00 to 9.00
5 | CCOc1nc(-n2nccn2)c(C(F)(F)F)cc1NC(=O)Nc1cnc2sc(C)nc2c1C(OC)C1CC1 (stereo not shown) [Compound 226a, 1-(7-(Cyclopropyl(methoxy)methyl)-2-methylthiazolo[5,4-b]pyridin-6-yl)-3-(2-ethoxy-6-(2H-1,2,3-triazol-2-yl)-5-(trifluoromethyl)pyridin-3-yl)urea] | 7.00 to 7.59 | 7.00 to 9.00

Further lines, with some results ahead:

Row | pIC50 [2] | SMILES | pIC50 [1]
6 | 7.00 to 7.59 | CCOc1nc(-n2nccn2)c(C(F)(F)F)cc1NC(=O)Nc1cnc2sc(C)nc2c1C(C)OC (single isomer, unassigned) [Compound 221, (S) or (R)-1-(2-ethoxy-6-(2H-1,2,3-triazol-2-yl)-5-(trifluoromethyl)pyridin-3-yl)-3-(7-(1-methoxyethyl)-2-methylthiazolo[5,4-b]pyridin-6-yl)urea] | 7.00 to 9.00
7 | 6.60 to 7.00 | COC(C)c1c(NC(=O)Nc2cnc(-n3ccnn3)c(C(F)F)c2)cnc2sc(C)nc12 (single isomer, unassigned) [Compound 206b, (S) or (R)-1-(5-(Difluoromethyl)-6-(1H-1,2,3-triazol-1-yl)pyridin-3-yl)-3-(7-(1-methoxyethyl)-2-methylthiazolo[5,4-b]pyridin-6-yl)urea] | 7.00 to 9.00
8 | 6.30 to 6.60 | COC(c1ccc(F)cc1)c1c(NC(=O)Nc2cnc(-n3nccn3)c(C(F)(F)F)c2)cnc2sc(C)nc12 (stereo not shown) [Compound 85b, 1-(6-(2H-1,2,3-Triazol-2-yl)-5-(trifluoromethyl)pyridin-3-yl)-3-(7-((4-fluorophenyl)(methoxy)methyl)-2-methylthiazolo[5,4-b]pyridin-6-yl)urea] | 7.00 to 9.00
9 | 6.60 to 7.00 | COc1ncc(NC(=O)Nc2cnc3sc(C)nc3c2N(C)CC(C)OC)cc1Cl (stereo not shown) [Compound 55a, 1-(5-Chloro-6-methoxypyridin-3-yl)-3-(7-((2-methoxypropyl)(methyl)amino)-2-methylthiazolo[5,4-b]pyridin-6-yl)urea] | 5.82 to 6.30
10 | 7.00 to 7.59 | O=C(Nc1cnc(-n2nccn2)c(Cl)c1)Nc1cnc2scnc2c1C1CC1 [Compound 35, 1-(5-Chloro-6-(2H-1,2,3-triazol-2-yl)pyridin-3-yl)-3-(7-cyclopropylthiazolo[5,4-b]pyridin-6-yl)urea] | 7.00 to 9.00
11 | 7.00 to 7.59 | COc1nc(-n2nccn2)c(C(F)(F)F)cc1NC(=O)Nc1cnc2sc(C)nc2c1C(OC)C(C)C (stereo not shown) [Compound 80a, 1-(7-(1-Methoxy-2-methylpropyl)-2-methylthiazolo[5,4-b]pyridin-6-yl)-3-(2-methoxy-6-(2H-1,2,3-triazol-2-yl)-5-(trifluoromethyl)pyridin-3-yl)urea] | 7.00 to 9.00
